# Patent US20240287138A1, “CYCLIC PEPTIDES FOR INHIBITING TNF RECEPTOR 1 ACTIVITY” (Merck Sharp & Dohme LLC, priority 2023, published 2024)
# Numbered stars: 1 amine (or outer) side, 2 acyl side, 3 side chain; on linkers, the order of the positions; unused ones are H or OH. Square brackets hold non-standard residues; d marks the D form. Peptide text beside a SMILES is read from it. * marks the point of attachment. Ala(2-carboxypyrimidin-5-yl) = N[C@@H](Cc1cnc(C(=O)O)nc1)C(=O)O; Trp(7-aza,1-CH2COOH) = N[C@@H](Cc1cn(CC(=O)O)c2ncccc12)C(=O)O; Trp(βS-Me,7-OMe) = COc1cccc2c([C@H](C)[C@H](N)C(=O)O)c[nH]c12; X49 = C[N+](C)(C)CC(=O)N[C@H]1C[C@H](C(=O)[*:2])N([*:1])C1; Phe(4-SO2NH2) = N[C@@H](Cc1ccc(S(N)(=O)=O)cc1)C(=O)O; Trp(7-CN) = N#Cc1cccc2c(C[C@H](N)C(=O)O)c[nH]c12; Trp(7-Cl) = N[C@@H](Cc1c[nH]c2c(Cl)cccc12)C(=O)O; X20 = O=C1NCc2ccc(C[C@H](N[*:1])C(=O)[*:2])cc21; X27 = O=C(O)c1ccc(C[C@H](N[*:1])C(=O)[*:2])cc1F; Phe(4-CONH2) = NC(=O)c1ccc(C[C@H](N)C(=O)O)cc1; Phe(4-COOH) = N[C@@H](Cc1ccc(C(=O)O)cc1)C(=O)O; Trp(7-aza) = N[C@@H](Cc1c[nH]c2ncccc12)C(=O)O; X18 = O=C([C@@H]1C=C[C@H](N[*:1])C1)[*:2]; Pip(5R-OH) = O=C(O)[C@@H]1CC[C@@H](O)CN1; X1 = O=C([C@@H]1CC[C@H](N[*:1])C1)[*:2]; Pip(4-aza) = O=C(O)[C@@H]1CNCCN1; 4Pal = N[C@@H](Cc1ccncc1)C(=O)O; NMeE = CN[C@@H](CCC(=O)O)C(=O)O; dHyp = O=C(O)[C@H]1C[C@H](O)CN1; αMeS = C[C@](N)(CO)C(=O)O; Carboxymethyl = O=C(O)C*; Nle = CCCC[C@H](N)C(=O)O; Sar = CNCC(=O)O
# Columns and labels:
# [1] = target: T1, human soluble TNFR1 (sTNFR1) (Homo sapiens, UniProt P19438); test: Human sTNFR1-peptide displacement assay (LanthaScreen Eu TR-FRET binding assay)
# T1 construct: made in house; host or cells: Sf21 (baculovirus)
# T1 sequence (P19438 with tags, fused parts or gaps): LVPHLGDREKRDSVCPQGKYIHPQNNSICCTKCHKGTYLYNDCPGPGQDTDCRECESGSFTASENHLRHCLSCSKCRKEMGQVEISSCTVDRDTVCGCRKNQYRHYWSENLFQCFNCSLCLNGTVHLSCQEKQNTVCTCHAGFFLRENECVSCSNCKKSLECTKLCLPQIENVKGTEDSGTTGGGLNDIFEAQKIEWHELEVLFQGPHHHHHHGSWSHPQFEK
# Method in brief: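 Readout is the 665/615 nm TR-FRET ratio (Eu anti-His donor, streptavidin-Alexa647 acceptor), normalized to DMSO and saturating displacer, fit by Morrison-based five-parameter logistic for Kd^app. His-tagged sTNFR1 (1-211) prebound to 100 nM biotinylated peptide SEQ ID NO.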
# [2] = target: T2, TNFα-induced NF-κB signal transduction pathway (TNFR1 signaling) in THP-1 cells (Homo sapiens, UniProt P19438); test: THP-1 Lucia NF-κB reporter cell assay, inhibition of TNFα-induced NF-κB signaling; type: cell-based; details: THP-1 NF-κB Lucia reporter cells, 10 ng/mL TNFα, 16-18 h, secreted luciferase; read-out: THP-1 IC50
# T2 sequence (P19438 30-455): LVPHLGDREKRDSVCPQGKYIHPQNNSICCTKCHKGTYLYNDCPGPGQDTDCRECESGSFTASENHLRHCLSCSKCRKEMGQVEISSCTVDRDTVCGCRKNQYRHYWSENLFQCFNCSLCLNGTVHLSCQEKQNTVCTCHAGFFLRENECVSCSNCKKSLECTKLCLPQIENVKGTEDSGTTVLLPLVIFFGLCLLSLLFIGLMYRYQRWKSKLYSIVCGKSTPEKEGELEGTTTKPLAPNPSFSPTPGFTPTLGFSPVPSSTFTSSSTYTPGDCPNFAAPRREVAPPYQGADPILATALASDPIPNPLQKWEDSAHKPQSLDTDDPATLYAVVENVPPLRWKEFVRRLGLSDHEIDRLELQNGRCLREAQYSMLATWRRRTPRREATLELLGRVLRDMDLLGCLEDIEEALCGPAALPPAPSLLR
# Method in brief: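 Read-out: secreted Lucia luciferase luminescence (QUANTI-Luc) from supernatant after 16-18 h, 37 °C, 10 ng/mL rhTNFα. Peptide pretreatment 1 h at 37 °C; 20,000 cells/well, selection antibiotics omitted. IC50 via 4-parameter logistic model against min/max controls.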
SMILES,Kd [1] [nM],IC50 [2] [nM]
"CCCC[C@@H]1NC(=O)[C@@H]2CC[C@@H](C2)NC(=O)[C@H]([C@@H](C)c2c[nH]c3c(OC)cccc23)NC(=O)CN(C)C(=O)[C@H](Cc2ccc(C(N)=O)cc2)NC(=O)[C@H](Cc2ccc(C(N)=O)cc2)NC(=O)[C@](C)(CO)NC(=O)[C@H](Cc2c[nH]c3c(C#N)cccc23)NC(=O)[C@H](Cc2ccc3c(c2)C(=O)NC3)NC(=O)[C@H](CC(N)=O)NC(=O)[C@H]2C[C@H](OCC(=O)O)CN2C(=O)[C@H](Cc2cn(CC(=O)O)c3ncccc23)NC(=O)[C@@H]2CC[C@@H](O)CN2C(=O)[C@H](Cc2ccncc2)NC1=O [SEQ ID NO. 156] (cyclo([4Pal][Pip(5R-OH)][Trp(7-aza,1-CH2COOH)][dHyp](Carboxymethyl)N[X20][Trp(7-CN)][αMeS][Phe(4-CONH2)][Phe(4-CONH2)][Sar][Trp(βS-Me,7-OMe)][X1][Nle]))",0.12,0.8
"CCCC[C@@H]1NC(=O)[C@@H]2CC[C@@H](C2)NC(=O)[C@H]([C@@H](C)c2c[nH]c3c(OC)cccc23)NC(=O)CN(C)C(=O)[C@H](Cc2ccc(C(=O)O)cc2)NC(=O)[C@H](Cc2ccc(C(N)=O)cc2)NC(=O)[C@](C)(CO)NC(=O)[C@H](Cc2c[nH]c3c(Cl)cccc23)NC(=O)[C@H](Cc2cnc(C(=O)O)nc2)NC(=O)[C@H](CC(N)=O)NC(=O)[C@H]2C[C@H](O)CN2C(=O)[C@H](Cc2c[nH]c3ccccc23)NC(=O)[C@@H]2CC[C@@H](O)CN2C(=O)[C@H](Cc2ccncc2)NC1=O [SEQ ID NO. 88] (cyclo([4Pal][Pip(5R-OH)]W[dHyp]N[Ala(2-carboxypyrimidin-5-yl)][Trp(7-Cl)][αMeS][Phe(4-CONH2)][Phe(4-COOH)][Sar][Trp(βS-Me,7-OMe)][X1][Nle]))",0.2,1.9
"CCCC[C@@H]1NC(=O)[C@@H]2CC[C@@H](C2)NC(=O)[C@H]([C@@H](C)c2c[nH]c3c(OC)cccc23)NC(=O)CN(C)C(=O)[C@H](Cc2ccc(OCC(=O)O)cc2)NC(=O)[C@H](Cc2ccc(S(N)(=O)=O)cc2)NC(=O)[C@](C)(CO)NC(=O)[C@H](Cc2c[nH]c3c(C#N)cccc23)NC(=O)[C@H](Cc2ccncc2)NC(=O)[C@H](CC(N)=O)NC(=O)[C@H]2C[C@H](OCC(=O)O)CN2C(=O)[C@H](Cc2cn(CC(=O)O)c3ncccc23)NC(=O)[C@@H]2CC[C@@H](O)CN2C(=O)[C@H](Cc2ccncc2)NC1=O [SEQ ID NO. 115] (cyclo([4Pal][Trp(7-CN)][αMeS][Phe(4-SO2NH2)]Y(Carboxymethyl)[Sar][Trp(βS-Me,7-OMe)][X1][Nle][4Pal][Pip(5R-OH)][Trp(7-aza,1-CH2COOH)][dHyp](Carboxymethyl)N))",0.19,1.4
"CCCC[C@@H]1NC(=O)[C@@H]2C=C[C@@H](C2)NC(=O)[C@H]([C@@H](C)c2c[nH]c3c(OC)cccc23)NC(=O)CN(C)C(=O)[C@H](Cc2ccc(O)cc2)NC(=O)[C@H](Cc2ccc(C(=O)O)cc2)NC(=O)[C@](C)(CO)NC(=O)[C@H](Cc2c[nH]c3c(Cl)cccc23)NC(=O)[C@H](Cc2ccncc2)NC(=O)[C@H](CC(N)=O)NC(=O)[C@H](CCC(=O)O)N(C)C(=O)[C@H](Cc2c[nH]c3ccccc23)NC(=O)[C@@H]2CNCCN2C(=O)[C@H](Cc2ccncc2)NC1=O [SEQ ID NO. 182] (cyclo([4Pal][Trp(7-Cl)][αMeS][Phe(4-COOH)]Y[Sar][Trp(βS-Me,7-OMe)][X18][Nle][4Pal][Pip(4-aza)]W[NMeE]N))",0.2,0.9
"CCCC[C@@H]1NC(=O)[C@@H]2CC[C@@H](C2)NC(=O)[C@H]([C@@H](C)c2c[nH]c3c(OC)cccc23)NC(=O)CN(C)C(=O)[C@H](Cc2ccc(C(=O)O)c(F)c2)NC(=O)[C@H](Cc2ccc(C(N)=O)cc2)NC(=O)[C@](C)(CO)NC(=O)[C@H](Cc2c[nH]c3c(C#N)cccc23)NC(=O)[C@H](Cc2ccc(C(=O)O)cc2)NC(=O)[C@H](CC(N)=O)NC(=O)[C@H]2C[C@H](NC(=O)C[N+](C)(C)C)CN2C(=O)[C@H](Cc2c[nH]c3ncccc23)NC(=O)[C@@H]2CC[C@@H](O)CN2C(=O)[C@H](Cc2ccncc2)NC1=O [SEQ ID NO. 113] (cyclo([4Pal][Pip(5R-OH)][Trp(7-aza)][X49]N[Phe(4-COOH)][Trp(7-CN)][αMeS][Phe(4-CONH2)][X27][Sar][Trp(βS-Me,7-OMe)][X1][Nle]))",0.09,0.5
